Measured values published in patent publication EP0332387B1, “Triazole derivatives, their preparation and their use as fungicides” (Sankyo Company Limited, priority 1988, dated 1989).

Legend:
Type in all cases: in vivo
[1] = system: Pyricularia oryzae; details: rice seedlings (variety Sachikaze), sprayed 24 hours after inoculation at 10 ppm (30 ml/3 pots), further 6 days; number of lesions on the upper two leaves
[2] = system: Venturia inaequalis; assay: Preventive activity against apple scab (Experiment 9); details: apple seedlings sprayed at 300 ppm, inoculated after 24 hours, 3 days moist chamber then 10 days greenhouse; diseased area on third and fourth leaves
Procedure: Apple seedlings at the 3 - 4 leaf stage were sprayed with an aqueous suspension of the test compound at a concentration of 300 ppm (30 ml/3 pots). The seedlings were then kept for 24 hours at room temperature, after which they were inoculated with the fungus, Venturia inaequalis, by spraying a spore suspension of the fungus over the seedlings. After inoculation, the seedlings were kept in a moist chamber for 3 days at 20 - 22 °C and then moved to a greenhouse at 20 - 22°C for 10 days. The disease controlling index was given on the basis of the diseased area on the third and fourth leaves.

[3] = system: Sphaerotheca fuliginea; assay: Preventive activity against powdery mildew of cucumber (Experiment 8); details: cucumber seedlings sprayed at 300 ppm, inoculated after 24 hours, evaluated after 7 days in greenhouse; diseased area on third and fourth leaves
Procedure: Cucumber seedlings (variety Sagamihanpaku) at the 3 - 4 leaf stage were sprayed with an aqueous suspension of the test compound at a concentration of 300 ppm (30 ml/3 pots). The seedlings were then kept for 24 hours at room temperature, after which they were inoculated with conidida of Sphaerotheca fuliginea. After keeping the seedlings in a greenhouse for 7 days, the disease controlling index was evaluated on the basis of the diseased area on the third and fourth leaves.

[4] = system: Puccinia recondita; assay: Curative activity against leaf rust of wheat (Experiment 6); details: wheat seedlings (variety Norin No 61), sprayed after inoculation at 3 ppm (30 ml/3 pots), 10 days; diseased area on the first leaf
Procedure: Wheat seedlings (variety Norin No 61) at the first leaf stage were inoculated with the fungus, Puccinia recondita, by spraying them with a spore suspension of the fungus. They were then kept in a moist chamber for 24 hours at 20 - 22 °C, after which they were moved to a greenhouse at 15 - 20 °C. […] The seedlings were then continuously kept in the greenhouse for 10 days. The disease controlling index was given on the basis of diseased area on the first leaf.

[5] = system: Rhizoctonia solani; assay: Preventive activity against sheath blight of rice plants by submerged application (Experiment 4); details: rice seedlings (variety Nihonbare), applied to the water in the pots, 100 g per 10 ares, inoculated after 7 days, 5 days; height of the lesions
Source text: Rice seedlings (variety Nihonbare) at the 4 - 5 leaf stage grown in pots were flooded to a depth of 1 cm with water. The test compound was then applied to the water in the pots in an amount corresponding to 100 g per 10 ares. After keeping the seedlings in a greenhouse for 7 days, the water was drained from the pots and the seedlings were inoculated with the fungus, Rhizoctonia solani, by placing 4 - 5 oat grains on which the fungus had previously been cultured around the base of each seedling. The seedlings were then kept in a moist chamber for 5 days at 25 - 27 °C. The disease controlling index was given on the basis of the height of the lesions formed on the rice seedlings.
Except for Table 14F, the compounds tested have the formula (1-1), in which Ar represents the group shown at the beginning of each part of the Table and R^1, R^2, X and Y are as defined in the Table.
(§1) The disease controlling index shown in the foregoing Tables 11 to 19 is indicated by the following codes: • 5--no disease (complete control) • 4--disease rate is less than 10% of the untreated plant • 3--disease rate is 10% - 30% of the untreated plant • 2--disease rate is 30% - 50% of the untreated plant • 1--disease rate is 50% - 70% of the untreated plant • 0--disease rate is almost same as the untreated plant.

[6] = system: Rhizoctonia solani; assay: Curative activity against sheath blight of rice plants (Experiment 3); parameters: key: 0 = disease as untreated, 5 = no disease (complete control); details: rice seedlings (variety Nihonbare), sprayed 24 hours after inoculation at 10 ppm (30 ml/3 pots), further 5 days; height of the lesions
Procedure: Rice seedlings (variety Nihonbare) at the 4 - 5 leaf stage were inoculated with the fungus, Rhizoctonia solani, by placing 4 - 5 oat grains on which the fungus had previously been cultured around the base of each rice seedling and keeping them in a moist chamber at 25 - 27 °C. After 24 hours, the rice seedlings were sprayed with an aqueous suspension of the test compound at a concentration of 10 ppm (30 ml/3 pots) and they then continued to be kept in the moist chamber for a further 5 days. The disease controlling index was given on the basis of the height of the lesions formed on the rice seedlings.
(§2) The compounds tested have the formula (1-1), in which Ar represents the group shown at the beginning of each part of the Table and R^1, R^2, X and Y are as defined in the Table.
as §1

[7] = system: Candida albicans; assay: ED50 in mice infected with Candida albicans, oral treatment (Experiment 11); details: 360 h, treated orally, fifteen days after infection
Procedure: Groups of mice (each group contained 10 mice) were inoculated with 7 to 9 x 10^6 spores per mouse of Candida albicans. 1, 4, and 24 hours after the inoculation, each mouse was orally administered 20 mg/kg of the test compound each time. The anti-fungal activity was assessed by the survival rate 9 days after infection. The survival rate was recorded as 0% 2 days after infection in an untreated (control) group. […] Following essentially the same procedure as that described in Experiment 10, mice were infected with Candida albicans, and treated orally with various compounds of the invention, as shown in the following Table 21. Fifteen days after infection (or fourteen days in the case of the compounds of Example Nos. 5 and 10), ED50 values were determined and are reported in the following Table 21.

[8] = system: Gibberella Fujikuroi; assay: Activity against bakanae disease of rice plants by seed soaking (Experiment 5); parameters: key: 0 = disease as untreated, 5 = no disease (complete control); details: infected rice seeds (variety Tanginbozu) immersed 3 days in aqueous suspension (concentration not given), 3 weeks; number of diseased seedlings
Procedure: Ten grams of rice seeds (variety Tanginbozu), infected with Gibberella Fujikuroi, were immersed in 20 ml of an aqueous suspension of the test compound for 3 days. At the end of this time, the treated seeds were densely sown in soil in pots, and the pots were placed in a greenhouse at 20 - 30 °C for 3 weeks. The disease controlling index was given on the basis of the number of diseased seedlings.
as §2, §1

[9] = system: Rhizoctonia solani; assay: Preventive activity against sheath blight of rice plants (Experiment 2); parameters: key: 0 = disease as untreated, 5 = no disease (complete control); details: rice seedlings (variety Nihonbare), sprayed at 100 ppm (30 ml/3 pots) 24 hours before inoculation, 5 days; height of the lesions
Procedure: Rice seedlings (variety Nihonbare) at the 4 - 5 leaf stage were sprayed with an aqueous suspension of the test compound at a concentration of 100 ppm (30 ml/3 pots). The seedlings were then kept for 24 hours at room temperature, after which they were inoculated with the fungus, Rhizoctonia solani, by placing 4 - 5 oat grains on which the fungus had previously been cultured around the base of each seedling. The seedlings were then kept in a moist chamber for 5 days at 25 - 27 °C. The disease controlling index was given on the basis of the height of the lesions formed on the rice seedlings.
Except in Table 12G, the compounds tested have the formula (1-1), in which Ar represents the group shown at the beginning of each part of the Table and R^1, R^2, X and Y are as defined in the Table.
as §1

[10] = system: Erysiphe graminis f.sp. hordei; assay: Curative activity against powdery mildew of barley (Experiment 7); details: barley seedlings (variety Sekishinriki), sprayed one day after inoculation at 3 ppm (30 ml/3 pots), further 10 days; diseased area on the first leaf
Procedure: Barley seedlings (variety […]) at the first leaf stage were inoculated with conidia of Erysiphe graminis f.sp. hordei and kept in a greenhouse at 15 - 20°C. After one day, the seedlings were sprayed with an aqueous suspension of the test compound at a concentration of 3 ppm (30 ml/3 pots), and they continued to be kept in the greenhouse at that temperature for a further 10 days. The disease controlling index was given on the basis of the diseased area on the first leaf.

Row | Compound | disease controlling index [1] | Index (disease controlling index) [2] | Index (disease controlling index) [3] | disease controlling index [4] | disease controlling index [5] | disease controlling index [6] | ED50 [7] [mg/kg] | disease controlling index [8] | disease controlling index [9] | disease controlling index [10]
1 | C[C@@H](N=[N+]=[N-])[C@](O)(Cn1cncn1)c1ccc(Cl)cc1Cl (relative stereo) [Example 2, (2R*, 3R*)-3-Azido-2-(2,4-dichlorophenyl)-l-(lH-1,2,4-triazol-1-yl)-2-butanol] | 4 (disease rate is less than 10% of the untreated plant) | 5 | 5 | 5 | 5 | 5 | – | – | – | –
2 | C[C@@H](NC(=O)c1ccc(C(F)(F)F)cc1)[C@](O)(Cn1cncn1)c1ccc(Cl)cc1 [Example 103, (2R, 3R)-2-(4-Chlorophenyl)-1-(1H-1,2,4-triazol-1-yl)-3-[(4-trifluoromethyl)benzoylamino]-2-butanol] | – | – | – | – | – | – | 0.48 | – | – | –
3 | C[C@@H](NC(=O)c1ccc(C(F)(F)F)cc1F)[C@](O)(Cn1cncn1)c1ccc(F)cc1F [Example 65] | 5 | – | 5 | 5 | – | 5 | < 0.625 | 4 (disease rate is less than 10% of the untreated plant) | 5 | 5
4 | C[C@@H](CCN=[N+]=[N-])[C@](O)(Cn1cncn1)c1ccc(F)cc1F (relative stereo) [Example 81, (2R*, 3S*)-5-Azido-2-(2,4-difluorophenyl)-3-methyl-1-(1H-1,2,4-triazol-1-yl)-2-pentanol] | 5 | – | – | 5 | 4 (disease rate is less than 10% of the untreated plant) | 5 | – | 5 | 5 | –
5 | CC(=O)N1CCN(c2ccc(OCC3COC(Cn4ccnc4)(c4ccc(Cl)cc4Cl)O3)cc2)CC1 (stereo not drawn) [ketoconazole, reference compound] | – | – | – | – | – | – | 31.4 | – | – | –
6 | C[C@@H](N=[N+]=[N-])[C@](O)(Cn1cncn1)c1ccc(F)cc1F [Example 99, (2R, 3R)-3-Azido-2-(2,4-difluorophenyl)-1-(1H-1,2,4-triazol-1-yl)-2-butanol] | 5 | 5 | 5 | – | 4 (disease rate is less than 10% of the untreated plant) | 5 | – | 5 | – | –
7 | CC(N=[N+]=[N-])[C@H](C)[C@](O)(Cn1cncn1)c1ccc(F)cc1F (single isomer, unassigned) [83 (C-4 isomer 1), (2R*, 3S*)-4-Azido-2-(2,4-difluorophenyl)-3-methyl-1-(1H-1,2,4-triazol-1-yl)-2-pentanol] | 5 | 5 | 5 | 5 | 5 | 5 | – | 5 | 5 | 5
8 | CC(N=[N+]=[N-])[C@H](C)[C@](O)(Cn1cncn1)c1ccc(F)cc1F (single isomer, unassigned) [83 (oxalate, C-4 isomer 2), (2R*, 3S*)-4-Azido-2-(2,4-difluorophenyl)-3-methyl-1-(1H-1,2,4-triazol-1-yl)-2-pentanol] | 5 | 5 | 5 | 5 | 4 (disease rate is less than 10% of the untreated plant) | 5 | – | 5 | 5 | 5
9 | C[C@@H](NC(=O)c1ccc(C#N)cc1)[C@](O)(Cn1cncn1)c1ccc(F)cc1F [Example 67] | – | – | 5 | 4 (disease rate is less than 10% of the untreated plant) | – | 4 (disease rate is less than 10% of the untreated plant) | 1.25 | – | 4 (disease rate is less than 10% of the untreated plant) | 4 (disease rate is less than 10% of the untreated plant)
10 | C[C@@H](NC(=O)c1ccc(C(F)(F)F)cc1)[C@](O)(Cn1cncn1)c1ccc(F)cc1F (relative stereo) [Example 17, (2R*, 3R*)-2-(2,4-0ifluorophenyl)-1-(1H-1,2,4-triazol-1-yl)-3-(4-trifluoromethylbenzoylamino)-2-butanol] | 5 | – | 4 (disease rate is less than 10% of the untreated plant) | 5 | – | 4 (disease rate is less than 10% of the untreated plant) | 0.86 | 4 (disease rate is less than 10% of the untreated plant) | 4 (disease rate is less than 10% of the untreated plant) | 5
